{
  "source": "paper PMC8326117",
  "about": "(International Journal of Biological Sciences, 2021)",
  "key": {"[1]": {"molecular_target": "ACE2 (Homo sapiens, UniProt Q9BYF1)", "sequence (Q9BYF1 18-805)": "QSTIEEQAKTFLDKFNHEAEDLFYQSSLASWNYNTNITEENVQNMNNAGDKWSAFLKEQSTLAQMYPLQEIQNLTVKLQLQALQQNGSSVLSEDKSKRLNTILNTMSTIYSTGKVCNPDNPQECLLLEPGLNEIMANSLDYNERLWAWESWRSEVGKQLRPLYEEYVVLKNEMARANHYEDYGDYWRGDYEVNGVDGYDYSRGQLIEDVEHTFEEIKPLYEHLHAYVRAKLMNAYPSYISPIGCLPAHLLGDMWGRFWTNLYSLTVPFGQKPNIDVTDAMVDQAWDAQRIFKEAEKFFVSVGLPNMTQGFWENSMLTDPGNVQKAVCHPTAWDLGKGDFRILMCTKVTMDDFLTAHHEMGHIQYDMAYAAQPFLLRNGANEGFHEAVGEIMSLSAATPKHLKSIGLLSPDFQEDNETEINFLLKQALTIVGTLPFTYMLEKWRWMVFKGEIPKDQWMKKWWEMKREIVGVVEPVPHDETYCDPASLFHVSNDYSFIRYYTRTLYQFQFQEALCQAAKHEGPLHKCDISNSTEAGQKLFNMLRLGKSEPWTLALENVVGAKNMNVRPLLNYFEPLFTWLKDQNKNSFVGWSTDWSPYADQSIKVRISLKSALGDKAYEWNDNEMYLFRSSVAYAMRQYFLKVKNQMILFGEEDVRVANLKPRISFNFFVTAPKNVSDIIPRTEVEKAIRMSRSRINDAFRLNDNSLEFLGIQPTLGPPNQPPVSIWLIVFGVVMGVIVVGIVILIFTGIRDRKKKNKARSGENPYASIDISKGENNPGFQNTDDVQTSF", "conditions": "cited from earlier work"}, "[2]": {"test_system": "SARS-CoV-2 Spike-pseudovirus", "conditions": "in vivo"}, "[3]": {"conditions": "mouse, in vivo"}, "[4]": {"test_system": "SARS-CoV-2 Spike-pseudovirus", "conditions": "in vivo", "remark": "listed apart in the source"}, "[5]": {"molecular_target": "S-protein RBD (Severe acute respiratory syndrome coronavirus 2, UniProt P0DTC2)", "test": "LSPR assay, binding to S-protein RBD", "set-up": "species or system SARS-CoV-2", "conditions": "pH 7.4", "method": "LSPR analysis. Localized Surface Plasmon Resonance (LSPR) analysis was conducted with OpenSPRTM instrument (Nicoyalife, Canada). The COOH sensor chip was firstly installed on the OpenSPRTM instrument in accordance with the standard procedure. Run the buffer at the maximum flow rate (150 μL/min) and exhaust the bubble after reaching the signal baseline. Slow down the flow rate of buffer solution (PBS, pH 7.4) to 20 µL/min, then load 200 µL EDC/NHS (20 μL /min, 4min) solution to activate COOH sensor chips. […] The injection port was rinsed with buffer solution and emptied with air. Fill with 200 µL blocking solution (20 µL/min, 4 min), wash the sample ring with buffer solution and empty it with air. Observe baseline for 5 min to ensure stability. Next, the selected peptides were diluted into a series of solutions with different concentration, which were then injected into the chip with the concentration from low to high. The kinetic parameters of the binding reactions were calculated and analyzed by using TraceDrawer software (Ridgeview Instruments AB, Sweden)."}, "[6]": {"test_system": "HEK293T/hACE2 cells"}, "[7]": {"test_system": "SARS-CoV-2 Spike-pseudovirus", "conditions": "in vivo", "remark": "listed apart in the source"}, "[8]": {"test_system": "SARS-CoV-2 S-protein", "assay_type": "binding"}},
  "note": "Entries after “also recorded” stand apart in the source; their conditions may differ. No end group written: not given here.",
  "data": [
    {"compound": "Cc1cc(O)c2c(c1)C(=O)c1cc(O)cc(O)c1C2=O", "note": "[emodin]", "values": [
      {"measurement": "ACE2 blocking", "setting": "[1]", "result": "identified to block ACE2"}
    ]},
    {"compound": "COc1ccc2[nH]cc(CCNC(C)=O)c2c1", "note": "[melatonin]", "values": [
      {"measurement": "ACE2 blocking", "setting": "[1]", "result": "identified to block ACE2"}
    ]},
    {"compound": "S=c1[nH]cnc2nc[nH]c12", "note": "[mercaptopurine]", "values": [
      {"measurement": "ACE2 blocking", "setting": "[1]", "result": "identified to block ACE2"}
    ]},
    {"compound": "CN(C)CCOc1ccc(/C(=C(/CCCl)c2ccccc2)c2ccccc2)cc1", "note": "[toremifene]", "values": [
      {"measurement": "ACE2 blocking", "setting": "[1]", "result": "identified to block ACE2"}
    ]},
    {"compound": "KKKKKKDKFNHEAEDLFY [AYn1]", "values": [
      {"measurement": "luciferase IHC staining in lungs", "setting": "[2]", "result": "significantly ameliorated"},
      {"measurement": "distribution in livers and kidneys", "setting": "[3]", "result": "not in the kidneys and livers"},
      {"measurement": "distribution in lungs and small intestine", "setting": "[3]", "result": "preferentially distributed in the lungs and intestine"},
      {"measurement": "pseudovirus infection / luciferin luminance", "setting": "[4]", "result": "relatively weaker impact on pseudovirus infection; also recorded: ameliorated; also recorded: failed to prevent pseudovirus infection in vivo"},
      {"measurement": "koff", "setting": "[5]", "result": 0.001, "unit": "s⁻¹"},
      {"measurement": "kon", "setting": "[5]", "result": 10500, "unit": "M⁻¹ s⁻¹"},
      {"measurement": "cytotoxicity", "setting": "[6]", "result": "no significant cytotoxicity"},
      {"measurement": "cytotoxicity (general statement)", "setting": "[6]", "result": "no cytotoxicity"},
      {"measurement": "pseudovirus content in lungs (119 bp S-protein band)", "setting": "[7]", "result": "relative weak therapeutic effect"},
      {"measurement": "protein-peptide interaction in pull-down", "setting": "[8]", "result": "no protein signal was detected in negative and blank control lanes"}
    ]}
  ]
}
